Measurements as given in PubChem BioAssay (NCI).
“And” between values parts separate entries of the source, which are not always exact repeats. Equal entries are not always repeated.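 48-hour exposure; five concentrations; linearly interpolated endpoints. GI50 is the concentration that inhibits growth by half. TGI: total growth inhibition.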

Key:
Experiment in all cases: inhibition of tumour cell growth, NCI panel, 48 h
[1] = system: HCC-2998 colon
[2] = system: U251 CNS
[3] = system: CAKI-1 renal
[4] = system: LXFL 529 NSCLC
[5] = system: 786-0 renal
[6] = system: UO-31 renal
[7] = system: SK-MEL-2 melanoma
[8] = system: DMS 273 small cell lung
[9] = system: SNB-78 CNS
[10] = system: SR leukemia
[11] = system: T-47D breast
[12] = system: PC-3 prostate

Row | Structure (SMILES) | TGI [1] | TGI [2] | TGI [3] | TGI [4] | TGI [5] | TGI [6] | TGI [7] | TGI [8] | TGI [9] | TGI [10] | TGI [11] | TGI [12] | GI50 [1] | GI50 [2] | GI50 [3] | GI50 [6] | GI50 [7] | GI50 [9]
1 | O=C(NNc1ccc([N+](=O)[O-])cc1)C1OC(CO)C(O)C1O (configuration not stated) | > 100 µM | > 100 µM | > 100 µM | > 100 µM | > 100 µM | > 100 µM | > 100 µM | > 100 µM | > 100 µM | – | – | – | – | – | – | – | – | –
2 | O=C(O)c1cc2c(cc1CC(Cc1ccccc1)C(=O)O)CCC2 (configuration not stated) | > 100 µM | > 100 µM | > 100 µM | – | > 100 µM | > 100 µM | > 100 µM | – | – | > 100 µM | > 100 µM | > 100 µM | – | – | – | – | – | –
3 | Cn1cnc([N+](=O)[O-])c1Sc1nncc2[nH]cnc12 | > 100 µM | > 100 µM | > 100 µM | – | > 100 µM | > 100 µM | > 100 µM | – | – | > 100 µM | > 100 µM | > 100 µM | – | – | – | – | – | –
4 | C=C1C(=O)OC2C1CC1OC2C(C)CCC/C(C)=C\CCC1(C)O (configuration not stated) | 63.5 µM | > 91.1 µM | 61.4 µM | – | – | 79.6 µM | 32.7 µM | 53.1 µM | 42.9 µM | – | – | – | – | – | – | – | – | –
5 | OCC1=C[C@@](COCc2ccccc2)(OCc2ccccc2)[C@@H](OCc2ccccc2)[C@@H]1OCc1ccccc1 | 32.3 µM | 25.6 µM | 45.1 µM | – | 52.9 µM | 67.1 µM | 39.3 µM | – | – | 33.4 µM | 82.8 µM | 55.5 µM | – | – | – | – | – | –
6 | CCCS(=O)OC1C(C2COC(C)(C)O2)OC2OC(C)(C)OC21 (configuration not stated) | 32.6 µM | 28.4 µM | 28 µM | – | 27.8 µM | 28.3 µM | 37.4 µM | – | – | 4.34 µM | > 69.6 µM | 24 µM | – | – | – | – | – | –
7 | CC1(C)CN=C(c2ccc3ccccc3c2O)N1 | > 100 µM | > 100 µM | > 100 µM | – | > 100 µM | > 100 µM | > 100 µM | – | – | > 100 µM | > 100 µM | > 100 µM | – | – | – | – | – | –
8 | COc1ccc(/C(Cl)=C(\C=O)c2ccc(Cl)cc2)cc1 | > 100 µM | 17.7 µM | > 100 µM | 51 µM | – | 33.1 µM | 54.6 µM | > 100 µM | > 100 µM | 6.7 µM | – | – | – | – | – | – | – | –
9 | Clc1cccc(Cl)c1C1ON=C(c2ccccc2)N1C12CC3CC(CC(C3)C1)C2 (configuration not stated) | > 100 µM | > 100 µM | > 100 µM | – | > 100 µM | > 100 µM | 71 µM | – | – | > 100 µM | > 100 µM | 29.9 µM | – | – | – | – | – | –
10 | Cc1cc(C(C)(C)C)c(OCCCN2CCOCC2)c(C(C)(C)C)c1 | 30.3 µM | 33.2 µM | 34.5 µM | – | 31.9 µM | 32.7 µM | 31.3 µM | – | – | 47 µM | 34.1 µM | 29.9 µM | – | – | – | – | – | –
11 | O=C(c1ccccc1)c1ccc2c(c1)N=C(c1ccc(Cl)c(Cl)c1)CC(c1ccc3ccccc3c1)N2 (configuration not stated) | > 100 µM | > 100 µM | > 100 µM | > 100 µM | – | > 100 µM | > 100 µM | > 100 µM | > 100 µM | > 100 µM | – | – | – | – | – | – | – | –
12 | O.O=[Se](=O)(O)O.[NH-]C1CCCCC1[NH-].[Pt+2] (configuration not stated) | > 100 µM | > 100 µM | 78.6 µM | – | – | > 68 µM | > 100 µM | – | > 100 µM | – | – | – | > 46.1 µM | 37 µM | 4.56 µM | 7.66 µM | 22.9 µM | 48.4 µM
13 | Cc1ccc2c3ccc4c(c3n(C)c2c1)C(=O)C=CC4=O | > 10 µM | > 10 µM | > 10 µM | – | 5.63 µM | > 10 µM | > 10 µM | – | – | 4.73 µM | 5.92 µM | > 10 µM | – | – | – | – | – | –
14 | NC(=S)N1N=C(c2ccc3c(c2)CCC3)CC1c1ccccc1 (configuration not stated) | 36.8 µM | 63.5 µM | > 100 µM | – | > 100 µM | > 100 µM | 36.2 µM | – | – | 95.5 µM | 27.9 µM | 87.8 µM | – | – | – | – | – | –
15 | CC(=O)N/N=C1\NN(C(C)=O)C2(S1)C(=O)Nc1ccccc12 (configuration not stated) | > 100 µM | > 100 µM | > 100 µM | – | > 100 µM | > 100 µM | > 100 µM | – | – | > 100 µM | > 100 µM | > 100 µM | – | – | – | – | – | –
16 | COc1cc(/C=C/C=C2\CC(C)C/C(=C\C=C\c3ccc(O)c(OC)c3)C2=O)ccc1O (configuration not stated) | > 100 µM | 33 µM | 33.2 µM | – | 47.9 µM | 25.1 µM | > 100 µM | – | – | 91.4 µM | > 100 µM | 48.8 µM | – | – | – | – | – | –
17 | CCOC(=O)C1C2C1C1C(C(=O)OCC)C21 (configuration not stated) | > 100 µM | > 100 µM | > 100 µM | – | > 100 µM | > 100 µM | > 100 µM | – | – | > 100 µM | > 100 µM | > 100 µM | – | – | – | – | – | –
18 | CN(CCc1ccccn1)C(=S)N/N=C/c1ccccn1 | 37.7 µM | > 94.9 µM | 17.2 µM | – | > 38.8 µM | 17.8 µM | 0.27 µM | – | – | < 0.01 µM | 22.2 µM | > 58.1 µM | – | – | – | – | – | –
19 | C#Cc1ccccc1C(=O)OC | > 100 µM | > 100 µM | – | – | – | > 100 µM | > 100 µM | > 100 µM | – | > 100 µM | – | – | – | – | – | – | – | –
20 | CC1=NN(C(=O)Cc2ccccc2)C(=O)/C1=C\c1cccc(O)c1 | > 100 µM | > 100 µM | > 100 µM | – | > 100 µM | > 100 µM | > 100 µM | > 100 µM | > 100 µM | > 100 µM | – | – | – | – | – | – | – | –
21 | O=c1c2cc(Cl)ccc2n2nnc3ccc(NCCNCCO)c1c32 | 2.7 µM | 1.94 µM | 4.97 µM | 3.51 µM | 2.02 µM | 3.49 µM | 5.01 µM | 2.45 µM | 9.39 µM | – | 7.52 µM | 2.75 µM | – | – | – | – | – | –
22 | C=CC(=O)N1C/C(=C\c2ccc(F)cc2)C(=O)/C(=C/c2ccc(F)cc2)C1 | 1.15 µM | 2.28 µM | 1.7 µM | – | 0.346 µM | 2.17 µM | 2.69 µM | – | – | > 100 µM | 39.7 µM | 1.79 µM | – | – | – | – | – | –
23 | CCOC(=O)c1c(C)n(CCN2CCN(C)CC2)c2ccc(OC)cc12 | 30.7 µM | > 100 µM | > 100 µM | – | > 100 µM | > 100 µM | 35.3 µM | – | – | 46.3 µM | > 100 µM | > 100 µM | – | – | – | – | – | –
24 | Nc1ncnc2c(C3OC(CO)C(O)C3O)c[nH]c12 (configuration not stated) | 0.247 µM and 0.343 µM | – | 0.402 µM | 0.189 µM and 0.153 µM | 16.4 µM | 0.118 µM and 0.258 µM | 0.0101 µM and < 0.0304 µM | 0.116 µM | 1.12 µM | 0.272 µM | 0.0758 µM and 0.0275 µM | 0.128 µM and 0.324 µM | – | – | – | – | 0.00179 µM | –
25 | C1CN(C23OC4(N5CCOCC5)C5C6CC(C7C6C4C72)C53)CCO1 (configuration not stated) | > 100 µM | > 100 µM | > 100 µM | – | > 100 µM | > 100 µM | > 100 µM | – | – | > 100 µM | > 100 µM | > 100 µM | – | – | – | – | – | –
26 | O=[N+]([O-])c1ccc(-c2nc3ccccc3o2)cc1 | > 100 µM | > 100 µM | > 100 µM | – | > 100 µM | > 100 µM | > 100 µM | – | – | > 100 µM | > 100 µM | > 100 µM | – | – | – | – | – | –
27 | CC[N+]1(C)CCC(O)(/C=C/c2ccc(Cl)c(Cl)c2)C(C(=O)/C=C/c2ccc(Cl)c(Cl)c2)C1 (configuration not stated) | 3.96 µM | 3.71 µM | 12.7 µM | – | 3.46 µM | 3.67 µM | 11.4 µM | – | – | > 22.7 µM | 4.87 µM | 5.19 µM | – | – | – | – | – | –
28 | CCCCCCCCCCCOCCC1C(C(C)OCCN2CCCC2)OC2OC(C)(C)OC21 (configuration not stated) | 4.83 µM | 5.72 µM | 6.52 µM | – | 5.88 µM | 6.51 µM | 3.51 µM | – | – | 1.83 µM | 4.8 µM | 6.05 µM | – | – | – | – | – | –
29 | Cc1ccc(NC(=O)NC23CC4CC(CC(F)(C4)C2)C3)cc1 | > 100 µM | > 100 µM | – | > 100 µM | > 100 µM | > 100 µM | > 100 µM | > 100 µM | > 100 µM | – | – | – | – | – | – | – | – | –
30 | CC1=C(C(=O)OC(C)C)C(c2cccc([N+](=O)[O-])c2)C(C(=O)OC(CO[N+](=O)[O-])CO[N+](=O)[O-])=C(C)N1 (configuration not stated) | 18.3 µM | 6.97 µM | > 100 µM | – | > 100 µM | > 50.1 µM | 5.61 µM | – | – | 15.6 µM | > 100 µM | > 32.6 µM | – | – | – | – | – | –
